Assay results taken from patent US20240368139A1, “NOVEL MODULATORS OF EHMT1 AND EHMT2 AND THERAPEUTIC USE THEREOF” (Tango Therapeutics, Inc., priority 2021, published 2024).

What was measured:
human EHMT1 982-1266 = target: T1, human EHMT1 982-1266 (Homo sapiens, UniProt Q9H9B1); test: EHMT1 enzyme assay on histone peptide substrate (3H-SAM SPA); conditions: EHMT1 IC50, recombinant human EHMT1 982-1266, histone peptide substrate
T1 sequence (Q9H9B1 982-1266): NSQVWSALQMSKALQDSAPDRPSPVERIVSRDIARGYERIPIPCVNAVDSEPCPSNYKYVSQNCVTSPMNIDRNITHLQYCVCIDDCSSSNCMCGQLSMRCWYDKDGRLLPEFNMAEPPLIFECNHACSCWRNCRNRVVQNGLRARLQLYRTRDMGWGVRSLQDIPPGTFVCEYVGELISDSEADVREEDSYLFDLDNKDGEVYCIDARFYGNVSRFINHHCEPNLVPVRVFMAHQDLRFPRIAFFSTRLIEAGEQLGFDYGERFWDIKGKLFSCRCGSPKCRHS

human EHMT2 913-1193 = target: T2, human EHMT2 913-1193 (Homo sapiens, UniProt Q96KQ7); test: EHMT2 enzyme assay on histone peptide substrate (3H-SAM SPA); conditions: EHMT2 IC50, recombinant human EHMT2 913-1193, histone peptide substrate
T2 sequence (Q96KQ7 913-1193): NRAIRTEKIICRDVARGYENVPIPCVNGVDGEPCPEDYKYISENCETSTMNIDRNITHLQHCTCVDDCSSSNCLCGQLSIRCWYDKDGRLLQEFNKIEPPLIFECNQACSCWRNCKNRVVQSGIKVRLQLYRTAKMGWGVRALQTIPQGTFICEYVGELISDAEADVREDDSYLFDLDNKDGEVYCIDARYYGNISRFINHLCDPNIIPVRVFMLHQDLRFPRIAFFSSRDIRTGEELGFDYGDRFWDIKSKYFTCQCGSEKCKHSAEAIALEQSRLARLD

H3K9me2 in HCT116 cells = test: HCT116 H3K9me2 in-cell western assay; format: cell-based; conditions: Homo sapiens, HCT-116, 72 h, HCT116 cells, 72 hours incubation; read-out: H3K9me2 ICW IC50
Outline: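 HCT116 cells (2,000/well) were treated for 72 h at 37° C, 5% CO2, with ten two-fold dilutions from 10 μM in duplicate. After PFA fixation, cells were stained overnight at 4° C with anti-H3K9me2, then with an 800 CW secondary plus DRAQ5.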

Row | Structure (SMILES) | IC50 (human EHMT1 982-1266) | IC50 (human EHMT2 913-1193) | IC50 (H3K9me2 in HCT116 cells)
1 | [2H]Cc1cc(NC)nc(Nc2cc3c(c(C4=CCN(C)CCC4)c2)OCO3)n1 [Compound 265] | < 0.1 µM | < 0.1 µM | < 0.1 µM
2 | [2H]Cc1cc(NC)nc(Nc2cc3c(c(C4=CCN(C)CCC4)c2)OCCO3)n1 [Compound 266] | < 0.1 µM | 0.1 to 0.5 µM | < 0.1 µM
3 | CNc1nc(Nc2cc3c(c(C4=CCN(C)CCC4)c2)OCC3)nc(C)c1F [Compound 267] | 0.1 to 0.5 µM | 0.5 to 2 µM | 0.1 to 0.5 µM
4 | [2H]C([2H])([2H])Nc1cc(C)nc(Nc2cc3c(c(C4=CCN(C)CCC4)c2)OCCC3)n1 [Compound 268] | < 0.1 µM | 0.1 to 0.5 µM | 0.1 to 0.5 µM
5 | [2H]Cc1cc(NC)nc(Nc2cc3c(c(C4=CCNCCC4)c2)OCO3)n1 [Compound 269] | < 0.1 µM | < 0.1 µM | < 0.1 µM
6 | [2H]Cc1cc(NC)nc(Nc2cc3c(c(C4=CCNCCC4)c2)OCCO3)n1 [Compound 270] | < 0.1 µM | < 0.1 µM | < 0.1 µM
7 | [2H]C([2H])([2H])Nc1nc(Nc2cc3c(c(C4=CCN(C)CCC4)c2)OCC3)nc(C)c1F [Compound 271] | 0.1 to 0.5 µM | 0.5 to 2 µM | 0.1 to 0.5 µM
8 | [2H]C([2H])([2H])CNc1cc(C)nc(Nc2cc3c(c(C4=CCN(C)CCC4)c2)OCCO3)n1 [Compound 272] | 0.1 to 0.5 µM | 0.5 to 2 µM | 0.1 to 0.5 µM
9 | [2H]C([2H])([2H])Nc1cc(C)nc(Nc2cc3c(c(C4=CCN(C)CCC4)c2)OCO3)n1 [Compound 273] | < 0.1 µM | 0.1 to 0.5 µM | < 0.1 µM
10 | [2H]C([2H])([2H])N1CC=C(c2cc(Nc3nc(C)cc(NC)n3)cc3c2OCC3)CCC1 [Compound 274] | < 0.1 µM | < 0.1 µM | < 0.1 µM
11 | [2H]C([2H])([2H])Nc1nc(Nc2cc3c(c(C4=CCNCCC4)c2)OCO3)nc(C)c1F [Compound 275] | 0.1 to 0.5 µM | 0.5 to 2 µM | 0.1 to 0.5 µM
12 | [2H]C([2H])([2H])Nc1nc(Nc2cc3c(c(C4=CCNCCC4)c2)OCC3)nc(C)c1F [Compound 276] | 0.1 to 0.5 µM | 0.1 to 0.5 µM | 0.1 to 0.5 µM
13 | CNc1nc(Nc2cc3c(c(C4=CCNCCC4)c2)OCC3)nc(C)c1F [Compound 277] | 0.1 to 0.5 µM | 0.1 to 0.5 µM | 0.1 to 0.5 µM
14 | CNc1cc(C)nc(Nc2cc3c(c(C4=CCN(C)CCC4)c2)OCC3)c1 [Compound 278] | < 0.1 µM | 0.1 to 0.5 µM | 0.1 to 0.5 µM
15 | CNc1nc(Nc2cc3c(c(C4=CCNCCC4)c2)OCO3)nc(C)c1F [Compound 279] | 0.1 to 0.5 µM | 0.5 to 2 µM | 0.1 to 0.5 µM
16 | CNc1cc(C)nc(Nc2cc3c(c(C4=CCN(C)CCC4)c2F)OCC3)n1 [Compound 280, N2-[6-fluoro-7-(1-methyl-2,3,4,7-tetrahydroazepin-5-yl)-2,3-dihydrobenzofuran-5-yl]-N4,6-dimethyl-pyrimidine-2,4-diamine] | < 0.1 µM | < 0.1 µM | < 0.1 µM
17 | [2H]C([2H])([2H])Nc1cc(C)nc(Nc2cc3c(c(C4=CCNCCC4)c2)OCO3)n1 [Compound 281] | < 0.1 µM | < 0.1 µM | < 0.1 µM
18 | [2H]C([2H])([2H])Nc1cc(C)nc(Nc2cc3c(c(C4=CCN(C)CCC4)c2)OCCO3)n1 [Compound 282] | < 0.1 µM | 0.5 to 2 µM | 0.1 to 0.5 µM
19 | [2H]C([2H])([2H])Nc1cc(C)nc(Nc2cc3c(c(C4=CCNCCC4)c2)OCCO3)n1 [Compound 283] | < 0.1 µM | < 0.1 µM | < 0.1 µM
20 | CNc1nc(Nc2cc3c(c(C4=CCNCCC4)c2)OCC3)nc(C)c1Cl [Compound 284] | 0.1 to 0.5 µM | 0.5 to 2 µM | 0.1 to 0.5 µM
21 | [2H]C([2H])([2H])CNc1cc(C)nc(Nc2cc3c(c(C4=CCNCCC4)c2)OCCO3)n1 [Compound 285] | 0.1 to 0.5 µM | 0.1 to 0.5 µM | 0.1 to 0.5 µM
22 | CNc1nc(Nc2cc3c(c(C4=CCN(C)CCC4)c2)OCC3)nc(C)c1C [Compound 286] | < 0.1 µM | 0.1 to 0.5 µM | 0.1 to 0.5 µM
23 | CNc1nc(Nc2cc3c(c(C4=CCNCCC4)c2)OCC3)nc(C)c1C [Compound 287] | < 0.1 µM | < 0.1 µM | < 0.1 µM
24 | CNc1cc(C)nc(Nc2cc3c(c(C4=CCNCCC4)c2)OCC3)c1 [Compound 288] | < 0.1 µM | < 0.1 µM | 0.1 to 0.5 µM
25 | Cc1cc(NCC2CCCO2)nc(Nc2cc3c(c(C4=CCN(C)CCC4)c2)OCC3)n1 (stereo not drawn) [Compound 292] | 0.1 to 0.5 µM | 0.1 to 0.5 µM | 0.1 to 0.5 µM

Row | Structure (SMILES) | IC50 (human EHMT1 982-1266) | IC50 (human EHMT2 913-1193) | IC50 (H3K9me2 in HCT116 cells)
26 | COCCCNc1cc(C)nc(Nc2cc3c(c(C4=CCNCCC4)c2)OCC3)c1 [Compound 293] | 0.1 to 0.5 µM | 0.1 to 0.5 µM | 0.5 to 2 µM
27 | Cc1cc(NCC2CCCO2)nc(Nc2cc3c(c(C4=CCNCCC4)c2)OCC3)n1 (stereo not drawn) [Compound 294] | < 0.1 µM | 0.1 to 0.5 µM | 0.1 to 0.5 µM
28 | COCCCNc1cc(C)nc(Nc2cc3c(c(C4=CCN(C)CCC4)c2)OCC3)c1 [Compound 295] | 0.1 to 0.5 µM | 0.5 to 2 µM | 0.5 to 2 µM
29 | [2H]C([2H])([2H])CNc1cc(C)nc(Nc2cc3c(c(C4=CCN(C)CCC4)c2)OCC3)n1 [Compound 296] | < 0.1 µM | 0.1 to 0.5 µM | 0.1 to 0.5 µM
30 | COCCNc1cc(C)nc(Nc2cc3c(c(C4=CCN(C)CCC4)c2)OCC3)c1 [Compound 297] | 0.1 to 0.5 µM | 0.5 to 2 µM | 0.5 to 2 µM
31 | COCCCNc1cc(C)nc(Nc2cc3c(c(C4=CCN(C)CCC4)c2)OCC3)n1 [Compound 298] | < 0.1 µM | 0.1 to 0.5 µM | 0.1 to 0.5 µM
32 | Cc1cc(NCC2CCOCC2)nc(Nc2cc3c(c(C4=CCN(C)CCC4)c2)OCC3)n1 [Compound 299] | < 0.1 µM | 0.1 to 0.5 µM | 0.1 to 0.5 µM
33 | [2H]C([2H])([2H])CNc1cc(C)nc(Nc2cc3c(c(C4=CCNCCC4)c2)OCC3)n1 [Compound 300] | < 0.1 µM | < 0.1 µM | 0.1 to 0.5 µM
34 | [2H]C([2H])([2H])Nc1cc(C)nc(Nc2cc3c(c(C4=CCN(C)CCC4)c2)OCC3)n1 [Compound 301] | < 0.1 µM | < 0.1 µM | 0.1 to 0.5 µM
35 | [2H]Cc1cc(NC)nc(Nc2cc3c(c(C4=CCNCCC4)c2)OCC3)n1 [Compound 302] | < 0.1 µM | < 0.1 µM | < 0.1 µM
36 | [2H]Cc1cc(NC)nc(Nc2cc3c(c(C4=CCN(C)CCC4)c2)OCC3)n1 [Compound 303] | < 0.1 µM | < 0.1 µM | < 0.1 µM
37 | CNc1cc(Nc2cc3c(c(C4=CCNCCC4)c2)OCC3)nc(C)c1F [Compound 304] | < 0.1 µM | < 0.1 µM | 0.1 to 0.5 µM
38 | COCCNc1cc(C)nc(Nc2cc3c(c(C4=CCNCCC4)c2)OCC3)c1 [Compound 305] | 0.1 to 0.5 µM | 0.1 to 0.5 µM | 0.5 to 2 µM
39 | [2H]C([2H])([2H])Nc1cc(C)nc(Nc2cc3c(c(C4=CCNCCC4)c2)OCC3)n1 [Compound 306] | < 0.1 µM | < 0.1 µM | < 0.1 µM
40 | CNc1cc(C)nc(Nc2cc3c(c(C4=CCCNCC4C)c2)OCC3)n1 (stereo not drawn) [Compound 307] | 0.1 to 0.5 µM | 0.5 to 2 µM | 0.5 to 2 µM
41 | Cc1cc(NCC2CCOCC2)nc(Nc2cc3c(c(C4=CCNCCC4)c2)OCC3)n1 [Compound 308] | < 0.1 µM | < 0.1 µM | 0.1 to 0.5 µM
42 | Cc1cc(NCC(F)(F)F)cc(Nc2cc3c(c(C4=CCNCCC4)c2)OCC3)n1 [Compound 309] | 0.1 to 0.5 µM | 0.5 to 2 µM | 0.5 to 2 µM
43 | COCCCNc1cc(C)nc(Nc2cc3c(c(C4=CCNCCC4)c2)OCC3)n1 [Compound 310] | < 0.1 µM | < 0.1 µM | 0.1 to 0.5 µM
44 | CNc1cc(C)nc(Nc2cc3c(c(C4=CCNCCC4)c2)COC3)n1 [Compound 311] | 0.1 to 0.5 µM | 0.5 to 2 µM | 0.1 to 0.5 µM
45 | Cc1cc(NC2COC2)cc(Nc2cc3c(c(C4=CCN(C)CCC4)c2)OCC3)n1 [Compound 312] | 0.1 to 0.5 µM | 0.5 to 2 µM | 0.5 to 2 µM
46 | Cc1cc(NC2COC2)cc(Nc2cc3c(c(C4=CCNCCC4)c2)OCC3)n1 [Compound 313] | 0.1 to 0.5 µM | 0.1 to 0.5 µM | 0.5 to 2 µM
47 | CNc1cc(C2CC2)nc(Nc2cc3c(c(C4=CCN(C)CCC4)c2)OCC3)n1 [Compound 314] | 0.1 to 0.5 µM | 0.5 to 2 µM | 0.1 to 0.5 µM
48 | CCNc1cc(C)nc(Nc2cc3c(c(C4=CCNCCC4)c2)OCC3)n1 [Compound 315] | 0.1 to 0.5 µM | 0.1 to 0.5 µM | 0.1 to 0.5 µM
49 | CCc1cc(NC)nc(Nc2cc3c(c(C4=CCN(C)CCC4)c2)OCC3)n1 [Compound 316] | < 0.1 µM | 0.1 to 0.5 µM | 0.1 to 0.5 µM
